Measurements from PMC10786919, “Design-rules for stapled peptides with in vivo activity and their application to Mdm2/X antagonists” (Nature Communications, 2024).
pEC50: −log10 of the molar value. Where two headings read alike, the source gives them in different places. Positions of bridges follow the written chain, without caps; N, C: chain ends. Non-standard residues stand in square brackets, D forms with d. Residues, ends and D or L forms follow the SMILES beside them. R8 = C=CCCCCCC[C@@](C)(N)C(=O)O; Cha = N[C@@H](CC1CCCCC1)C(=O)O; S5 = C=CCCC[C@](C)(N)C(=O)O; Ahx = NCCCCCC(=O)O

Experiments:
Assay type in all cases: cell-based
[1] = system: p53 responsive β-lactamase reporter in HCT116 cells; test: cells; settings: 0% FBS 4Hr
Experimental: HCT116 cells were stably transfected with a p53 responsive β-lactamase reporter and expanded in McCoy’s 5 A Medium with 10% fetal bovine serum (FBS), Blasticidin, and Penicillin/Streptomycin and then transferred to 1.5 ml freezing vials and stored under liquid nitrogen in growth media containing 5% DMSO. […] The cells were then seeded into a 384-well plate at a density of 8000 cells per well. […] The final working concentration of DMSO was 0.5%. β-lactamase activity was detected using the ToxBLAzer Dual Screen (Invitrogen), as per the manufacturer’s instructions. Measurements were made using the Envision multiplate reader (Perkin–Elmer). […] Measurements were taken a minimum of three times (biological replicates) and values are reported as geometric means of the replicates.

HCT116 cells = test: Lactate dehydrogenase (LDH) release assay
How it was run: (§1)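 Geometric means of at least three independent biological runs are given for LDH release measured in HCT116 cells stably expressing a p53-driven β-lactamase reporter. Plating density was 8000 cells/well; DMSO in wells was 0.5%.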

[2] = Lactate dehydrogenase (LDH) release assay; settings: LDH: Cytotoxicity assay EC50
How it was run: as §1

[3] = read-out: p53 reporter assay EC50

| SMILES | pEC50 [1, 3] | further results |
| --- | --- | --- |
| CC(=O)N[C@H](C(=O)N[C@@H](CO)C(=O)N[C@@H](Cc1ccccc1)C(=O)N[C@]1(C)CCCCCCC=CCCC[C@@](C)(C(=O)N[C@@H](CCC(N)=O)C(=O)N[C@@H](CC(N)=O)C(=O)N[C@@H](Cc2ccccc2)C(N)=O)NC(=O)[C@H](CC(C)C)NC(=O)[C@H](CC(C)C)NC(=O)[C@H](C)NC(=O)[C@H](Cc2c[nH]c3ccccc23)NC(=O)[C@H](Cc2ccc(O)cc2)NC(=O)[C@H](CCC(=O)O)NC1=O)[C@@H](C)O [MP-2026] | 6.01 | LDH: Cytotoxicity assay % Effect (HCT116 cells): 23.2%; pEC50 [2]: < 4.30 |
| CC(=O)N[C@@H](CCCCN)C(=O)N[C@@H](CCCCN)C(=O)N[C@@H](CCCCN)C(=O)NCCCCCC(=O)N[C@H](C(=O)N[C@@H](CO)C(=O)N[C@@H](C)C(=O)N[C@]1(C)CCCCCCC=CCCC[C@@](C)(C(=O)N[C@@H](CCC(=O)O)C(=O)N[C@@H](CC(N)=O)C(=O)N[C@@H](Cc2ccccc2)C(N)=O)NC(=O)[C@H](CC(C)C)NC(=O)[C@H](CC(C)C)NC(=O)[C@H](C)NC(=O)[C@H](Cc2c[nH]c3ccccc23)NC(=O)[C@H](Cc2ccc(O)cc2)NC(=O)[C@H](CCC(=O)O)NC1=O)[C@@H](C)O [MP-070] (Ac-KKK[Ahx]TSA[R8]EYWALL[S5]ENF-NH2; staple 8-15) | < 4.30 | – |
| CC(=O)N[C@H](C(=O)N[C@@H](CO)C(=O)N[C@@H](Cc1ccccc1)C(=O)N[C@]1(C)CCCCCCC=CCCC[C@@](C)(C(N)=O)NC(=O)[C@H](CC2CCCCC2)NC(=O)[C@H](CC(C)C)NC(=O)[C@H](C)NC(=O)[C@H](Cc2c[nH]c3ccccc23)NC(=O)[C@H](Cc2ccc(O)cc2)NC(=O)[C@H](CCC(=O)O)NC1=O)[C@@H](C)O [MP-064] (Ac-TSF[R8]EYWAL[Cha][S5]-NH2; staple 4-11) | 6.05 | – |
| CC(=O)N[C@@H](CCCCN)C(=O)N[C@@H](CCCCN)C(=O)N[C@@H](CO)C(=O)NCC(=O)N[C@@H](CO)C(=O)NCC(=O)N[C@H](C(=O)N[C@@H](CO)C(=O)N[C@@H](Cc1ccccc1)C(=O)N[C@]1(C)CCCCCCC=CCCC[C@@](C)(C(=O)N[C@@H](CCC(=O)O)C(=O)N[C@@H](CC(N)=O)C(=O)N[C@@H](Cc2ccccc2)C(N)=O)NC(=O)[C@H](CC(C)C)NC(=O)[C@H](CC(C)C)NC(=O)[C@H](C)NC(=O)[C@H](Cc2c[nH]c3ccccc23)NC(=O)[C@H](Cc2ccc(O)cc2)NC(=O)[C@H](CCC(=O)O)NC1=O)[C@@H](C)O [MP-052] (Ac-KKSGSGTSF[R8]EYWALL[S5]ENF-NH2; staple 10-17) | 4.89 | – |
| CC(=O)N[C@@H](CCCCN)C(=O)NCCCCCC(=O)N[C@H](C(=O)N[C@@H](CO)C(=O)N[C@@H](Cc1ccccc1)C(=O)N[C@]1(C)CCCCCCCCCCC[C@@](C)(C(=O)N[C@@H](CCC(=O)O)C(=O)N[C@@H](CC(N)=O)C(=O)N[C@@H](Cc2ccccc2)C(N)=O)NC(=O)[C@H](CC(C)C)NC(=O)[C@H](CC(C)C)NC(=O)[C@H](C)NC(=O)[C@H](Cc2c[nH]c3ccccc23)NC(=O)[C@H](Cc2ccc(O)cc2)NC(=O)[C@H](CCC(=O)O)NC1=O)[C@@H](C)O [MP-049] | 5.06 | – |
| CC(=O)N[C@@H](CCCCN)C(=O)NCCCCCC(=O)N[C@H](C(=O)N[C@@H](CO)C(=O)N[C@@H](Cc1ccccc1)C(=O)N[C@]1(C)CCCCCC/C=C\CCC[C@@](C)(C(=O)N[C@@H](CCC(=O)O)C(=O)N[C@@H](CC(N)=O)C(=O)N[C@@H](Cc2ccccc2)C(N)=O)NC(=O)[C@H](CC(C)C)NC(=O)[C@H](CC(C)C)NC(=O)[C@H](C)NC(=O)[C@H](Cc2c[nH]c3ccccc23)NC(=O)[C@H](Cc2ccc(O)cc2)NC(=O)[C@H](CCC(=O)O)NC1=O)[C@@H](C)O [MP-2094] | – | pEC50 ([1]; read-out: p53 reporter assay: EC50): 5.19 |
